Entries after “also recorded” stand apart in the source; their conditions may differ.
Assays:
[1] = system: TRP2-mediated cAMP accumulation; experiment: Effect of PTX, CTX, YM-254890 and H89 on TRP2-mediated cAMP accumulation, HEK293 cells expressing TRPR; type: cell-based, Homo sapiens; conditions: TRP2, Control (no inhibitor)
TRPR [2] = system: TRPR
ERK phosphorylation = ERK phosphorylation in brain of worker bees after TRP2 injection or TRP/TRPR knockdown (Western blot); type: in vivo, Apis mellifera ligustica; conditions: for ERK phosphorylation in brain: 6A
Method: Cells were seeded in 24-well plates and starved for 4 hr in serum-free medium to reduce background ERK1/2 activation and eliminate the effects of the change of medium. […] Protein concentration was determined according to the Bradford method using BSA as the standard and the absorption was measured at 595 nm (spectrophotometer DU800, Beckman Coulter, USA), then all the samples were kept in −80°C for further use. For Western blot, equal amounts of total cell lysate (20 μg/lane) were fractionated by SDS-PAGE (10%) and transferred to a PVDF membrane (Millipore, USA) using an iBlot dry blotting system (Invitrogen, USA). The membranes were blocked for 2 hr at room temperature and then incubated with rabbit monoclonal anti-pERK1/2 antibody (Cell Signaling Technology, USA) and anti-rabbit horseradish peroxidase-conjugated secondary antibody (Cell Signaling Technology) according to the manufacturers’ protocols. Antibody reactive bands were visualized using Pierce ECL western blotting substrate (Thermo Fisher Scientific, USA) followed by photographic film exposure. Total ERK1/2 was assessed as a loading control after p-ERK1/2 chemiluminescence detection. Quantification analyses were performed using Gel-Pro Analyzer 4.0 software (Media Cybernetics, USA).
Three independent replicate groups per condition were collected and Western blot analyses were performed: Honeybee brains were carefully dissected and frozen at −80°C until protein extraction. Brain protein extractions were carried out according to our previously described method with some modifications. Briefly, the […] were homogenized with lysis buffer (LB, 8 M urea, 2 M thiourea, 4% CHAPS, 20 mM Tris-base, 30 mM dithiothreitol). The mixture was homogenized for 30 min on ice and sonicated 20 s per 5 min during this time, then centrifuged at 12,000 g and 4°C for 10 min. Ice-cold acetone was added to the collected supernatants, and then the mixture was kept on ice for 30 min for protein precipitation. Subsequently, the mixture was centrifuged at 12,000 g and 4°C for 10 min. The supernatant was discarded and the pellets were resolved in LB and kept at −20°C for further use. Western blot analyses were performed as described in 'TRP/TRPR signaling targets: cAMP, Ca^2+, and ERK' section.

honeybee TRPR [3] = experiment: Competitive binding of TRPs to TRPR in HEK293 cells (displacement of TAMRA-TRP2/TAMRA-TRP3); design: species or system Apis mellifera; conditions: for competitive binding (residual TAMRA-TRP binding): HEK293
honeybee TRPR [4] = experiment: Competitive binding of TRPs to TRPR in Sf21 cells (displacement of TAMRA-TRP2/TAMRA-TRP3); design: species or system Apis mellifera
TRPR [5] = system: TRPR; remark: listed apart in the source

ALMGFQGVRa [TRP2]
cAMP accumulation ([1]; Suppl.3A, replicate 1): 9.157
cAMP accumulation ([1]; Suppl.3A, replicate 2): 10.923
cAMP accumulation ([1]; Suppl.3A, replicate 3): 10.206
cAMP accumulation ([1]; Suppl.3B, replicate 1): 86.752
cAMP accumulation ([1]; Suppl.3B, replicate 2): 90.385
cAMP accumulation ([1]; Suppl.3B, replicate 3): 95.777
cAMP and Ca2+ signaling, TRP2 compared with TRP3 (TRPR [2]): induced higher cAMP and Ca^2+ signaling than TRP3
increase of cAMP levels (TRPR [2]): more than 10 fold
ERK phosphorylation in brain (ERK phosphorylation; NB, replicate 1): 0.0746
ERK phosphorylation in brain (ERK phosphorylation; NB, replicate 2): 0.0650
ERK phosphorylation in brain (ERK phosphorylation; NB, replicate 3): 0.0783
ERK phosphorylation in brain (ERK phosphorylation; NF, replicate 1): 0.5050
ERK phosphorylation in brain (ERK phosphorylation; NF, replicate 2): 0.5454
ERK phosphorylation in brain (ERK phosphorylation; NF, replicate 3): 0.5933
ERK phosphorylation in brain (ERK phosphorylation; PF, replicate 1): 0.2191
ERK phosphorylation in brain (ERK phosphorylation; PF, replicate 2): 0.2416
ERK phosphorylation in brain (ERK phosphorylation; PF, replicate 3): 0.2036
level of phosphorylated ERK in brain (ERK phosphorylation; after injection into NBs, PFs and NFs, vs ddH2O): significantly increased
competitive binding (residual TAMRA-TRP binding) (honeybee TRPR [3]; Log (M) -4, replicate 1): 6.8655
competitive binding (residual TAMRA-TRP binding) (honeybee TRPR [3]; Log (M) -4, replicate 2): 5.4421
competitive binding (residual TAMRA-TRP binding) (honeybee TRPR [3]; Log (M) -4, replicate 3): 6.7148
competitive binding (residual TAMRA-TRP binding) (honeybee TRPR [3]; Log (M) -5, replicate 1): 5.4278
competitive binding (residual TAMRA-TRP binding) (honeybee TRPR [3]; Log (M) -5, replicate 2): 4.8584
competitive binding (residual TAMRA-TRP binding) (honeybee TRPR [3]; Log (M) -5, replicate 3): 7.2943
competitive binding (residual TAMRA-TRP binding) (honeybee TRPR [3]; Log (M) -6, replicate 1): 7.7659
competitive binding (residual TAMRA-TRP binding) (honeybee TRPR [3]; Log (M) -6, replicate 2): 5.3036
competitive binding (residual TAMRA-TRP binding) (honeybee TRPR [3]; Log (M) -6, replicate 3): 8.6345
competitive binding (residual TAMRA-TRP binding) (honeybee TRPR [3]; Log (M) -7, replicate 1): 18.9281
competitive binding (residual TAMRA-TRP binding) (honeybee TRPR [3]; Log (M) -7, replicate 2): 12.1701
competitive binding (residual TAMRA-TRP binding) (honeybee TRPR [3]; Log (M) -7, replicate 3): 11.2282
competitive binding (residual TAMRA-TRP binding) (honeybee TRPR [3]; Log (M) -8, replicate 1): 39.3417
competitive binding (residual TAMRA-TRP binding) (honeybee TRPR [3]; Log (M) -8, replicate 2): 38.9933
competitive binding (residual TAMRA-TRP binding) (honeybee TRPR [3]; Log (M) -8, replicate 3): 33.9876
competitive binding (residual TAMRA-TRP binding) (honeybee TRPR [3]; Log (M) -9, replicate 1): 62.0505
competitive binding (residual TAMRA-TRP binding) (honeybee TRPR [3]; Log (M) -9, replicate 2): 61.6487
competitive binding (residual TAMRA-TRP binding) (honeybee TRPR [3]; Log (M) -9, replicate 3): 64.6985
competitive binding (residual TAMRA-TRP binding) (honeybee TRPR [3]; Log (M) -10, replicate 1): 72.1434
competitive binding (residual TAMRA-TRP binding) (honeybee TRPR [3]; Log (M) -10, replicate 2): 80.3662
competitive binding (residual TAMRA-TRP binding) (honeybee TRPR [3]; Log (M) -10, replicate 3): 73.4408
competitive binding (residual TAMRA-TRP binding) (honeybee TRPR [3]; Log (M) -11, replicate 1): 96.7383
competitive binding (residual TAMRA-TRP binding) (honeybee TRPR [3]; Log (M) -11, replicate 2): 91.1557
competitive binding (residual TAMRA-TRP binding) (honeybee TRPR [3]; Log (M) -11, replicate 3): 93.6625
competitive binding (residual TAMRA-TRP binding) (honeybee TRPR [3]; Log (M) -12, replicate 1): 92.6094
competitive binding (residual TAMRA-TRP binding) (honeybee TRPR [3]; Log (M) -12, replicate 2): 98.3333
competitive binding (residual TAMRA-TRP binding) (honeybee TRPR [3]; Log (M) -12, replicate 3): 97.4974
affinity of TRPR, TRP2 compared with TRP3 (honeybee TRPR [3]; competitive binding assays, HEK293 and Sf21 cells): stronger binding affinity to the receptor TRPR than TRP3; also recorded: higher for TRP2 than for TRP3; also recorded: higher affinity to TRPR
competitive binding (honeybee TRPR [4]; Log (M) -4, replicate 1): 26.6823
competitive binding (honeybee TRPR [4]; Log (M) -4, replicate 2): 24.9306
competitive binding (honeybee TRPR [4]; Log (M) -4, replicate 3): 19.6578
competitive binding (honeybee TRPR [4]; Log (M) -5, replicate 1): 24.5134
competitive binding (honeybee TRPR [4]; Log (M) -5, replicate 2): 25.2301
competitive binding (honeybee TRPR [4]; Log (M) -5, replicate 3): 28.7532
competitive binding (honeybee TRPR [4]; Log (M) -6, replicate 1): 31.3191
competitive binding (honeybee TRPR [4]; Log (M) -6, replicate 2): 30.3643
competitive binding (honeybee TRPR [4]; Log (M) -6, replicate 3): 34.3614
competitive binding (honeybee TRPR [4]; Log (M) -7, replicate 1): 40.7138
competitive binding (honeybee TRPR [4]; Log (M) -7, replicate 2): 35.6042
competitive binding (honeybee TRPR [4]; Log (M) -7, replicate 3): 42.4738
competitive binding (honeybee TRPR [4]; Log (M) -8, replicate 1): 59.0125
competitive binding (honeybee TRPR [4]; Log (M) -8, replicate 2): 64.4899
competitive binding (honeybee TRPR [4]; Log (M) -8, replicate 3): 60.9813
competitive binding (honeybee TRPR [4]; Log (M) -9, replicate 1): 79.5758
competitive binding (honeybee TRPR [4]; Log (M) -9, replicate 2): 73.4731
competitive binding (honeybee TRPR [4]; Log (M) -9, replicate 3): 72.5477
competitive binding (honeybee TRPR [4]; Log (M) -10, replicate 1): 80.4598
competitive binding (honeybee TRPR [4]; Log (M) -10, replicate 2): 86.2073
competitive binding (honeybee TRPR [4]; Log (M) -10, replicate 3): 87.5948
competitive binding (honeybee TRPR [4]; Log (M) -11, replicate 1): 96.7722
competitive binding (honeybee TRPR [4]; Log (M) -11, replicate 2): 92.2369
competitive binding (honeybee TRPR [4]; Log (M) -11, replicate 3): 91.4817
competitive binding (honeybee TRPR [4]; Log (M) -12, replicate 1): 92.3887
competitive binding (honeybee TRPR [4]; Log (M) -12, replicate 2): 98.2368
competitive binding (honeybee TRPR [4]; Log (M) -12, replicate 3): 98.3115
intracellular Ca2+ levels (TRPR [5]): rose sharply

From article PMC8016481, “Tachykinin signaling inhibits task-specific behavioral responsiveness in honeybee workers” (eLife, 2021)
